# Target: human PAD4 (hPAD4) (Homo sapiens (Human), UniProt Q9UM07)
# Test: RFMS Human PAD4 Functional Assay 1
# Assay type: biochemical
# Conditions: RFMS assay 1; 5 nM hPAD4, 250 μM BAEE substrate, 50 μM calcium, 37° C.
# In short: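 Recombinant hPAD4 (5 nM) was preincubated with compound (top 50 μM, 0.5% DMSO) for 30 min at 37 °C, then reacted with 250 μM BAEE for 90 min at 37 °C in pH 7.5 HEPES buffer with 50 μM calcium and 5 μM TPEN. Product was derivatized with phenyl glyoxal and quantified by RapidFire MS.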
# human PAD4 (hPAD4), sequence (Q9UM07 whole entry): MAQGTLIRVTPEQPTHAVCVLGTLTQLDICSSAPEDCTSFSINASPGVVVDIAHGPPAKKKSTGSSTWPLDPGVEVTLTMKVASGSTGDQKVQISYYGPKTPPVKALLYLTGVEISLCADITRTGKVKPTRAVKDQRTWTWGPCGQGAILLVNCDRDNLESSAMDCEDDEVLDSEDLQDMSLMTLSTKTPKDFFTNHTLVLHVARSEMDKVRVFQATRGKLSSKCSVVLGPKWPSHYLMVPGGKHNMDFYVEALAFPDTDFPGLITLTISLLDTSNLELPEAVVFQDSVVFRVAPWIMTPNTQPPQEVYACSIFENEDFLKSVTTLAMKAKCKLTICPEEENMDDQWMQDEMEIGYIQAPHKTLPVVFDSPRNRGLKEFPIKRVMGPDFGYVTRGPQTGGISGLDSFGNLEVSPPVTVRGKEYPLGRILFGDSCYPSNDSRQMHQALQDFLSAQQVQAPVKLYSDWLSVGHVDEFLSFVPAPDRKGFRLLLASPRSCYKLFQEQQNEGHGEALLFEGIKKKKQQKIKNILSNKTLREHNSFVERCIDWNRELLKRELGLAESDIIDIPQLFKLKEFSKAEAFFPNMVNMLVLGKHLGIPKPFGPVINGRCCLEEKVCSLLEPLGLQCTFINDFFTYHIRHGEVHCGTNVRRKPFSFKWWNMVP
row,Compound,IC50 [µM]
1,"Cc1c(-c2cc3ccc(-c4cccc(CO)c4)cc3n2CC2CC2)nn2cc(C(=O)N3CCC[C@@H](N)C3)ccc12 [Example 344, [3-(2-{6-[(3R)-3-Aminopiperidine-1-carbonyl]-3-methylpyrazolo[1,5-a]pyridin-2-yl}-1-(cyclopropylmethyl)-1H-indol-6-yl)phenyl]methanol]",0.47
2,"Cc1c(-c2cc3ccc(-c4ccc5[nH]ccc5c4)cc3n2CC2CC2)nn2cc(C(=O)N3CCC[C@@H](N)C3)ccc12 [Example 345, (3R)-1-{2-[1′-(Cyclopropylmethyl)-1H,1′H-[5,6′-biindole]-2′-yl]-3-methylpyrazolo[1,5-a]pyridine-6-carbonyl}piperidin-3-amine]",0.79
3,"COC(=O)N(C)C1CCN(c2ccc3cc(-c4nn5cc(C(=O)N6C[C@H](N)C[C@@H](F)C6)ccc5c4C)n(CC4CC4)c3c2)CC1 [Example 352, Methyl N-[1-(2-{6-[(3R,5R)-3-amino-5-fluoropiperidine-1-carbonyl]-3-methylpyrazolo[1,5-a]pyridin-2-yl}-1-(cyclopropylmethyl)-1H-indol-6-yl)piperidin-4-yl]-N-methylcarbamate]",0.81
4,"CC(=O)N(C)C1CCN(c2ccc3cc(-c4nn5cc(C(=O)N6C[C@H](N)C[C@@H](F)C6)ccc5c4C)n(CC4CC4)c3c2)CC1 [Example 353, N-[1-(2-{6-[(3R,5R)-3-Amino-5-fluoropiperidine-1-carbonyl]-3-methylpyrazolo[1,5-a]pyridin-2-yl}-1-(cyclopropylmethyl)-1H-indol-6-yl)piperidin-4-yl]-N-methylacetamide]",0.61
5,"Cc1c(-c2cc3ccc(N4CCC(N5CCCC5=O)CC4)cc3n2CC2CC2)nn2cc(C(=O)N3C[C@H](N)C[C@@H](F)C3)ccc12 [Example 356, 1-[1-(2-{6-[(3R,5R)-3-Amino-5-fluoropiperidine-1-carbonyl]-3-methylpyrazolo[1,5-a]pyridin-2-yl}-1-(cyclopropylmethyl)-1H-indol-6-yl)piperidin-4-yl]pyrrolidin-2-one]",2.78
6,"COC(=O)N(C)C1CCN(c2ccc3cc(-c4nn5cc(C(=O)N6CCC[C@@H](N)C6)ccc5c4C)n(CC4CC4)c3c2)CC1 [Example 358, Methyl N-[1-(2-{6-[(3R)-3-aminopiperidine-1-carbonyl]-3-methylpyrazolo[1,5-a]pyridin-2-yl}-1-(cyclopropylmethyl)-1H-indol-6-yl)piperidin-4-yl]-N-methylcarbamate]",0.42
7,"Cc1c(-c2cc3ccc(N4CCC(N(C)S(C)(=O)=O)CC4)cc3n2CC2CC2)nn2cc(C(=O)N3CCC[C@@H](N)C3)ccc12 [Example 360, N-[1-(2-{6-[(3R)-3-Aminopiperidine-1-carbonyl]-3-methylpyrazolo[1,5-a]pyridin-2-yl}-1-(cyclopropylmethyl)-1H-indol-6-yl)piperidin-4-yl]-N-methylmethanesulfonamide]",0.45
8,"Cc1c(-c2cc3ccc(N4CCC(N(C)S(C)(=O)=O)CC4)cc3n2CC2CC2)nn2cc(C(=O)N3CCC[C@@H](N)C3)ccc12 [Example 362, N-[1-(2-{6-[(3R)-3-Aminopiperidine-1-carbonyl]-3-methylpyrazolo[1,5-a]pyridin-2-yl}-1-(cyclopropylmethyl)-1H-indol-6-yl)piperidin-4-yl]-N-methylmethanesulfonamide]",0.43
9,"Cc1c(-c2cc3ccc(N4CCC(N5CCCC5=O)CC4)cc3n2CC2CC2)nn2cc(C(=O)N3CCC[C@@H](N)C3)ccc12 [Example 363, 1-[1-(2-{6-[(3R)-3-Aminopiperidine-1-carbonyl]-3-methylpyrazolo[1,5-a]pyridin-2-yl}-1-(cyclopropylmethyl)-1H-indol-6-yl)piperidin-4-yl]pyrrolidin-2-one]",2.28
10,"Cc1c(-c2cc3ccc(N4CCC(N5CCOC5=O)CC4)cc3n2CC2CC2)nn2cc(C(=O)N3CCC[C@@H](N)C3)ccc12 [Example 364, 3-[1-(2-{6-[(3R)-3-Aminopiperidine-1-carbonyl]-3-methylpyrazolo[1,5-a]pyridin-2-yl}-1-(cyclopropylmethyl)-1H-indol-6-yl)piperidin-4-yl]-1,3-oxazolidin-2-one]",1.09
11,"Cc1c(-c2cc3ccc(N4CCC(n5cccn5)CC4)cc3n2CC2CC2)nn2cc(C(=O)N3CCC[C@@H](N)C3)ccc12 [Example 365, (3R)-1-{2-[1-(Cyclopropylmethyl)-6-[4-(1H-pyrazol-1-yl)piperidin-1-yl]-1H-indol-2-yl]-3-methylpyrazolo[1,5-a]pyridine-6-carbonyl}piperidin-3-amine]",0.72
12,"Cc1c(-c2cc3ccc(N4CC(N(C)S(C)(=O)=O)C4)cc3n2CC2CC2)nn2cc(C(=O)N3CCC[C@@H](N)C3)ccc12 [Example 366, N-[1-(2-{6-[(3R)-3-Aminopiperidine-1-carbonyl]-3-methylpyrazolo[1,5-a]pyridin-2-yl}-1-(cyclopropylmethyl)-1H-indol-6-yl)azetidin-3-yl]-N-methylmethanesulfonamide]",0.87

# Molecules with a lower IC50, results first:
row,IC50 [µM],Compound
1,0.3,"Cc1c(-c2cc3ccc(N4CCC(C(=O)N5CCCC5)CC4)cc3n2CC2CC2)nn2cc(C(=O)N3CCC[C@@H](N)C3)ccc12 [Example 361, (3R)-1-{2-[1-(Cyclopropylmethyl)-6-[4-(pyrrolidine-1-carbonyl)piperidin-1-yl]-1H-indol-2-yl]-3-methylpyrazolo[1,5-a]pyridine-6-carbonyl}piperidin-3-amine]"
2,0.29,"Cc1c(-c2cc3ccc(-c4ccc(NS(C)(=O)=O)cc4)cc3n2CC2CC2)nn2cc(C(=O)N3CCC[C@@H](N)C3)ccc12 [Example 347, N-[4-(2-{6-[(3R)-3-Aminopiperidine-1-carbonyl]-3-methylpyrazolo[1,5-a]pyridin-2-yl}-1-(cyclopropylmethyl)-1H-indol-6-yl)phenyl]methanesulfonamide]"
3,0.24,"CC(=O)N(C)C1CCN(c2ccc3cc(-c4nn5cc(C(=O)N6CCC[C@@H](N)C6)ccc5c4C)n(CC4CC4)c3c2)CC1 [Example 359, N-[1-(2-{6-[(3R)-3-Aminopiperidine-1-carbonyl]-3-methylpyrazolo[1,5-a]pyridin-2-yl}-1-(cyclopropylmethyl)-1H-indol-6-yl)piperidin-4-yl]-N-methyl acetamide]"
4,0.15,"Cc1c(-c2cc3ccc(N4CCC(N(C)S(C)(=O)=O)CC4)cc3n2CC2CC2)nn2cc(C(=O)N3C[C@H](N)C[C@@H](F)C3)ccc12 [Example 354, N-[1-(2-{6-[(3R,5R)-3-Amino-5-fluoropiperidine-1-carbonyl]-3-methylpyrazolo[1,5-a]pyridin-2-yl}-1-(cyclopropylmethyl)-1H-indol-6-yl)piperidin-4-yl]-N-methylmethanesulfonamide]"
5,0.14,"CC(=O)Nc1ccc(-c2ccc3cc(-c4nn5cc(C(=O)N6CCC[C@@H](N)C6)ccc5c4C)n(CC4CC4)c3c2)cn1 [Example 348, N-[5-(2-{6-[(3R)-3-Aminopiperidine-1-carbonyl]-3-methylpyrazolo[1,5-a]pyridin-2-yl}-1-(cyclopropylmethyl)-1H-indol-6-yl)pyridin-2-yl]acetamide]"
6,0.1,"Cc1c(-c2cc3ccc(-c4ccn5c(C)nnc5c4)cc3n2CC2CC2)nn2cc(C(=O)N3CCC[C@@H](N)C3)ccc12 [Example 349, (R)-(3-Aminopiperidin-1-yl)(2-(1-(cyclopropylmethyl)-6-(3-methyl-[1,2,4]triazolo[4,3-a]pyridin-7-yl)-1H-indol-2-yl)-3-methylpyrazolo[1,5-a]pyridin-6-yl)methanone]"
7,0.1,"Cc1c(-c2cc3ccc(N4CCC(S(C)(=O)=O)CC4)cc3n2CC2CC2)nn2cc(C(=O)N3CC4CCC3[C@@H]4N)ccc12 (stereo partly drawn) [Example 351, (7R)-2-{2-[1-(Cyclopropylmethyl)-6-(4-methanesulfonylpiperidin-1-yl)-1H-indol-2-yl]-3-methylpyrazolo[1,5-a]pyridine-6-carbonyl}-2-azabicyclo[2.2.1]heptan-7-amine]"
8,0.06,"Cc1c(-c2ccc3cc(-c4nn5cc(C(=O)N6CCC[C@@H](N)C6)ccc5c4C)n(CC4CC4)c3c2)cc(F)c2[nH]c(=O)ccc12 [Example 346, 6-(2-{6-[(3R)-3-Aminopiperidine-1-carbonyl]-3-methylpyrazolo[1,5-a]pyridin-2-yl}-1-(cyclopropylmethyl)-1H-indol-6-yl)-8-fluoro-5-methyl-1,2-dihydroquinolin-2-one]"
9,0.05,"CC(=O)NCc1cccc(-c2ccc3cc(-c4nn5cc(C(=O)N6CCC[C@@H](N)C6)ccc5c4C)n(CC4CC4)c3c2)c1 [Example 343, N-{[3-(2-{6-[(3R)-3-Aminopiperidine-1-carbonyl]-3-methylpyrazolo[1,5-a]pyridin-2-yl}-1-(cyclopropylmethyl)-1H-indol-6-yl)phenyl]methyl}acetamide]"
10,0.05,"Cc1c(-c2cc3ccc(N4CCC(N5CCOC5=O)CC4)cc3n2CC2CC2)nn2cc(C(=O)N3C[C@H](N)C[C@@H](F)C3)ccc12 [Example 357, 3-[1-(2-{6-[(3R,5R)-3-Amino-5-fluoropiperidine-1-carbonyl]-3-methylpyrazolo[1,5-a]pyridin-2-yl}-1-(cyclopropylmethyl)-1H-indol-6-yl)piperidin-4-yl]-l,3-oxazolidin-2-one]"
11,0.03,"Cc1c(-c2cc3ccc(N4CCOCC4)cc3n2CC2CC2)nn2cc(C(=O)N3CC4CCC3[C@@H]4N)ccc12 (stereo partly drawn) [Example 350, (7R)-2-{2-[1-(Cyclopropylmethyl)-6-(morpholin-4-yl)-1H-indol-2-yl]-3-methylpyrazolo[1,5-a]pyridine-6-carbonyl}-2-azabicyclo[2.2.1]heptan-7-amine]"
12,0.02,"Cc1c(-c2cc3ccc(N4CCC(C(=O)N5CCCC5)CC4)cc3n2CC2CC2)nn2cc(C(=O)N3C[C@H](N)C[C@@H](F)C3)ccc12 [Example 355, (3R,5R)-1-{2-[1-(Cyclopropylmethyl)-6-[4-(pyrrolidine-1-carbonyl)piperidin-1-yl]-1H-indol-2-yl]-3-methylpyrazolo[1,5-a]pyridine-6-carbonyl}-5-fluoropiperidin-3-amine]"
